Measured values from PubChem BioAssay AID1259407 (Chemical Carcinogenesis Research Information System (CCRIS), 2018).
Calls of active or inactive are those of the source. No rule for the calls is given here.

Tested on: CCRIS mutagenicity, Ames/micronucleus/aberration tests
Experiment: CCRIS mutagenicity studies
[1] = Test System: AMES SALMONELLA TYPHIMURIUM, Strain/Indicator: TA98, Metabolic Activation: NONE, Method: PREINCUBATION
[2] = Test System: AMES SALMONELLA TYPHIMURIUM, Strain/Indicator: TA100, Metabolic Activation: NONE, Method: PREINCUBATION
[3] = Test System: AMES SALMONELLA TYPHIMURIUM, Strain/Indicator: TA100, Metabolic Activation: NONE, Method: STANDARD PLATE
[4] = Test System: AMES SALMONELLA TYPHIMURIUM, Strain/Indicator: TA97, Metabolic Activation: NONE, Method: STANDARD PLATE

NC=O
mutagenic call (End Point: In vivo micronucleus, Test System: Peripheral blood erythrocytes, Species: Mouse, Strain/Sex: B6C3F1/ Male and Female, Route: Oral): inactive; negative
mutagenic call (Test System: AMES SALMONELLA TYPHIMURIUM, Strain/Indicator: TA98, Metabolic Activation: HAMSTER, LIVER, S-9, AROCLOR 1254 (10%), Method: PREINCUBATION): inactive; negative
mutagenic call [1]: inactive; negative
mutagenic call (Test System: AMES SALMONELLA TYPHIMURIUM, Strain/Indicator: TA98, Metabolic Activation: RAT LIVER S-9, PHENOBARBITAL AND BETA-NAPHTHOFLAVONE, Method: PREINCUBATION): inactive; negative
mutagenic call (Test System: AMES SALMONELLA TYPHIMURIUM, Strain/Indicator: TA98, Metabolic Activation: RAT, LIVER, S-9, AROCLOR 1254 (10%), Method: PREINCUBATION): inactive; negative
mutagenic call (Test System: AMES SALMONELLA TYPHIMURIUM, Strain/Indicator: TA100, Metabolic Activation: HAMSTER, LIVER, S-9, AROCLOR 1254 (10%), Method: PREINCUBATION): inactive; negative
mutagenic call [2]: inactive; negative
mutagenic call (Test System: AMES SALMONELLA TYPHIMURIUM, Strain/Indicator: TA100, Metabolic Activation: RAT LIVER S-9, PHENOBARBITAL AND BETA-NAPHTHOFLAVONE, Method: PREINCUBATION): inactive; negative
mutagenic call (Test System: AMES SALMONELLA TYPHIMURIUM, Strain/Indicator: TA100, Metabolic Activation: RAT, LIVER, S-9, AROCLOR 1254 (10%), Method: PREINCUBATION): inactive; negative
mutagenic call (Test System: AMES SALMONELLA TYPHIMURIUM, Strain/Indicator: TA1535, Metabolic Activation: HAMSTER, LIVER, S-9, AROCLOR 1254 (10%), Method: PREINCUBATION): inactive; negative
mutagenic call (Test System: AMES SALMONELLA TYPHIMURIUM, Strain/Indicator: TA1535, Metabolic Activation: NONE, Method: PREINCUBATION): inactive; negative
mutagenic call (Test System: AMES SALMONELLA TYPHIMURIUM, Strain/Indicator: TA1535, Metabolic Activation: RAT LIVER S-9, PHENOBARBITAL AND BETA-NAPHTHOFLAVONE, Method: PREINCUBATION): inactive; negative
mutagenic call (Test System: AMES SALMONELLA TYPHIMURIUM, Strain/Indicator: TA1535, Metabolic Activation: RAT, LIVER, S-9, AROCLOR 1254 (10%), Method: PREINCUBATION): inactive; negative
mutagenic call (Test System: AMES SALMONELLA TYPHIMURIUM, Strain/Indicator: TA1537, Metabolic Activation: HAMSTER, LIVER, S-9, AROCLOR 1254 (10%), Method: PREINCUBATION): inactive; negative
mutagenic call (Test System: AMES SALMONELLA TYPHIMURIUM, Strain/Indicator: TA1537, Metabolic Activation: NONE, Method: PREINCUBATION): inactive; negative
mutagenic call (Test System: AMES SALMONELLA TYPHIMURIUM, Strain/Indicator: TA1537, Metabolic Activation: RAT LIVER S-9, PHENOBARBITAL AND BETA-NAPHTHOFLAVONE, Method: PREINCUBATION): inactive; negative
mutagenic call (Test System: AMES SALMONELLA TYPHIMURIUM, Strain/Indicator: TA1537, Metabolic Activation: RAT, LIVER, S-9, AROCLOR 1254 (10%), Method: PREINCUBATION): inactive; negative
mutagenic call (Test System: Ames Salmonella typhimurium, Strain/Indicator: TA98, Metabolic Activation: None, Method: Preincubation): inactive; negative
mutagenic call (Test System: Ames Salmonella typhimurium, Strain/Indicator: TA98, Metabolic Activation: Rat, Liver, S-9, Aroclor 1254 (10%), Method: Preincubation): inactive; negative
mutagenic call (Test System: Ames Salmonella typhimurium, Strain/Indicator: TA100, Metabolic Activation: None, Method: Preincubation): inactive; negative
mutagenic call (Test System: Ames Salmonella typhimurium, Strain/Indicator: TA100, Metabolic Activation: Rat, Liver, S-9, Aroclor 1254 (10%), Method: Preincubation): inactive; negative
mutagenic call (Test System: E. coli, Strain/Indicator: WP urvA pKM101, Metabolic Activation: None, Method: Preincubation): inactive; negative
mutagenic call (Test System: E. coli, Strain/Indicator: WP urvA pKM101, Metabolic Activation: Rat, Liver, S-9, Aroclor 1254 (10%), Method: Preincubation): inactive; negative
mutagenic call (Test System: E.COLI, Strain/Indicator: WP2UVRA/PKM101, Metabolic Activation: NONE, Method: PREINCUBATION): inactive; negative
mutagenic call (Test System: E.COLI, Strain/Indicator: WP2UVRA/PKM101, Metabolic Activation: RAT LIVER S-9, PHENOBARBITAL AND BETA-NAPHTHOFLAVONE, Method: PREINCUBATION): inactive; negative

CC(=O)OCC12OOC1(C)c1ccccc1O2 (stereo unspecified)
mutagenic call [2]: active; positive

O=[N+]([O-])c1ccc(OC2CO2)cc1 (stereo unspecified)
mutagenic call [3]: active; positive
mutagenic call (Test System: AMES SALMONELLA TYPHIMURIUM, Strain/Indicator: TA1535, Metabolic Activation: NONE, Method: STANDARD PLATE): active; positive

Cc1ccc2c(c1)C(=O)c1ccccc1C2=O
mutagenic call [4]: inactive; negative
mutagenic call (Test System: AMES SALMONELLA TYPHIMURIUM, Strain/Indicator: TA97, Metabolic Activation: RAT, LIVER, S-9, PCB, Method: STANDARD PLATE): inactive; negative
mutagenic call [1]: inactive; negative
mutagenic call (Test System: AMES SALMONELLA TYPHIMURIUM, Strain/Indicator: TA98, Metabolic Activation: NONE, Method: STANDARD PLATE): inactive; negative
mutagenic call (Test System: AMES SALMONELLA TYPHIMURIUM, Strain/Indicator: TA98, Metabolic Activation: RAT, LIVER, S-9, PCB, Method: PREINCUBATION): inactive; negative
mutagenic call (Test System: AMES SALMONELLA TYPHIMURIUM, Strain/Indicator: TA98, Metabolic Activation: RAT, LIVER, S-9, PCB, Method: STANDARD PLATE): inactive; negative
mutagenic call [2]: inactive; negative
mutagenic call [3]: inactive; negative
mutagenic call (Test System: AMES SALMONELLA TYPHIMURIUM, Strain/Indicator: TA100, Metabolic Activation: RAT, LIVER, S-9, PCB, Method: PREINCUBATION): inactive; negative
mutagenic call (Test System: AMES SALMONELLA TYPHIMURIUM, Strain/Indicator: TA100, Metabolic Activation: RAT, LIVER, S-9, PCB, Method: STANDARD PLATE): inactive; negative

C[n+]1ccn(CCS(C)(=O)=O)c1/C=N/O
mutagenic call [4]: inactive; negative
mutagenic call (Test System: AMES SALMONELLA TYPHIMURIUM, Strain/Indicator: TA97, Metabolic Activation: RAT, LIVER, S-9, Method: STANDARD PLATE): inactive; negative
mutagenic call [3]: inactive; negative
mutagenic call (Test System: AMES SALMONELLA TYPHIMURIUM, Strain/Indicator: TA100, Metabolic Activation: RAT, LIVER, S-9, Method: STANDARD PLATE): inactive; negative
mutagenic call (Test System: AMES SALMONELLA TYPHIMURIUM, Strain/Indicator: TA104, Metabolic Activation: NONE, Method: STANDARD PLATE): inactive; negative
mutagenic call (Test System: AMES SALMONELLA TYPHIMURIUM, Strain/Indicator: TA104, Metabolic Activation: RAT, LIVER, S-9, Method: STANDARD PLATE): inactive; negative
mutagenic call (Test System: AMES SALMONELLA TYPHIMURIUM, Strain/Indicator: TA1537, Metabolic Activation: NONE, Method: STANDARD PLATE): inactive; negative
mutagenic call (Test System: AMES SALMONELLA TYPHIMURIUM, Strain/Indicator: TA1537, Metabolic Activation: RAT, LIVER, S-9, Method: STANDARD PLATE): inactive; negative
mutagenic call (Test System: AMES SALMONELLA TYPHIMURIUM, Strain/Indicator: TA1538, Metabolic Activation: NONE, Method: STANDARD PLATE): inactive; negative
mutagenic call (Test System: AMES SALMONELLA TYPHIMURIUM, Strain/Indicator: TA1538, Metabolic Activation: RAT, LIVER, S-9, Method: STANDARD PLATE): inactive; negative

N=C1C=CC2=CC(S(=O)(=O)O)=CC(=O)C2=C1NNc1ccc(-c2ccc(N=Nc3cc(S(=O)(=O)O)c4ccccc4c3N)cc2)cc1
mutagenic call (Test System: AMES SALMONELLA TYPHIMURIUM, Strain/Indicator: TA98, Metabolic Activation: HAMSTER, LIVER, S-9, Method: PREINCUBATION (PRIVAL METHOD)): active; positive

CCCN(CC(C)O)N=O (stereo unspecified)
mutagenic call (Test System: CHINESE HAMSTER V-79, Strain/Indicator: V-79/OUABAIN, Metabolic Activation: HAMSTER, HEPATOCYTES, Method: CELL-MEDIATED): active; positive

CC(=O)C[C@@H]1CCCCCC(=O)O[C@H](CC(C)=O)CCC(=O)CCC(=O)O1
mutagenic call (Test System: CHINESE HAMSTER V-79, Strain/Indicator: V-79 (HPRT)/6-THIOGUANINE, Metabolic Activation: NONE): active; positive
